Test results reported in the supplement of paper PMC10627819.

Key:
B. subtilis 168 [1] = assay: fitness (endpoint OD595 vs no drug) (fraction); higher = more growth
How it was run: (§1)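 Fitness expresses the optical density reached at the stationary-phase transition as a fraction of the robust mean of no-drug control wells. It is capped at 1. Measurements were OD595 every 30 min for 14 h at 37 °C after inoculation of 384-well plates at OD595 0.01 (30 µl, or 55 µl for S. pneumoniae), minus the first reading.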

S. aureus DSM 20231 [2] = assay: as above
How it was run: as §1

S. pneumoniae D39V [3] = assay: as above
How it was run: as §1

B. subtilis 168 [4] = assay: Bliss interaction score (quartile over a dose matrix) (fitness difference); higher = more antagonism (negative = synergy)
How it was run: (§2)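 Growth was read as OD595 when cultures entered stationary phase, and each value was divided by the plate's robust no-drug mean and capped at 1. This normalised ratio is the fitness value, and fitness for each single drug came from the combination data. The Bliss score subtracts the expected fitness, taken as the product, from the observed fitness and is given as quartiles across technical, biological and donor/recipient replicates.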

S. aureus DSM 20231 [5] = assay: as above
How it was run: as §2

S. aureus Newman = assay: as above
How it was run: as §2

S. pneumoniae D39V [6] = assay: as above
How it was run: as §2
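Wherever Bliss interaction score (quartile over a dose matrix) is given: first quartile when negative (synergy) and third quartile when positive (antagonism).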
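Wherever fitness (endpoint OD595 vs no drug) is given: OD595 on entry to stationary phase over no-drug wells; at most 1.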

CC(=O)NC[C@H]1CN(c2ccc(N3CCOCC3)c(F)c2)C(=O)O1 [Linezolid] + CN(N=O)C(=O)N[C@@H](C=O)[C@@H](O)[C@H](O)[C@H](O)CO [Streptozotocin]
fitness, one replicate
Conditions	partner 0.15 µg/mL	partner 0.3 µg/mL	partner 0.6 µg/mL	partner 1.2 µg/mL	partner 2.4 µg/mL	partner 4.8 µg/mL
B. subtilis 168 [1], first compound 0.0625 µg/mL	0.957	0.927	0.929	–	–	–
B. subtilis 168 [1], first compound 0.5 µg/mL	0.0222	0.0242	0.0095	–	–	–
S. aureus DSM 20231 [2], first compound 1 µg/mL	0.023	0.0376	0.0265	–	–	–
S. pneumoniae D39V [3], first compound 0.2 µg/mL	–	–	–	0.806	0.823	0.787
S. pneumoniae D39V [3], first compound 0.4 µg/mL	–	–	–	0.615	0.69	0.653
S. pneumoniae D39V [3], first compound 0.8 µg/mL	–	–	–	0.299	0.351	0.204

fitness
Conditions	partner 0.15 µg/mL	partner 0.3 µg/mL	partner 0.6 µg/mL	partner 1.2 µg/mL	partner 2.4 µg/mL	partner 4.8 µg/mL
B. subtilis 168 [1], first compound 0.125 µg/mL	0.479	0.502	0.453	–	–	–
B. subtilis 168 [1], first compound 0.25 µg/mL	0.0775	0.0625	0.0614	–	–	–
S. aureus DSM 20231 [2], first compound 0.125 µg/mL	0.778	0.738	0.68	–	–	–
S. aureus DSM 20231 [2], first compound 0.25 µg/mL	0.519	0.504	0.496	–	–	–
S. aureus DSM 20231 [2], first compound 0.5 µg/mL	0.129	0.176	0.133	–	–	–
S. pneumoniae D39V [3], first compound 0.105 µg/mL	–	–	–	0.771	0.815	0.778
S. pneumoniae D39V [3], first compound 0.21 µg/mL	–	–	–	0.69	0.668	0.704
S. pneumoniae D39V [3], first compound 0.42 µg/mL	–	–	–	0.438	0.432	0.408

Conditions	Bliss interaction score
B. subtilis 168 [4]	-0.0322
S. aureus DSM 20231 [5]	-0.0379
S. aureus Newman	-0.0367
S. pneumoniae D39V [6]	-0.115

CC(=O)NC[C@H]1CN(c2ccc(N3CCOCC3)c(F)c2)C(=O)O1 [Linezolid] + CN[C@H](CC(C)C)C(=O)N[C@H]1C(=O)N[C@@H](CC(N)=O)C(=O)N[C@H]2C(=O)N[C@H]3C(=O)N[C@H](C(=O)N[C@H](C(=O)O)c4cc(O)cc(O)c4-c4cc3ccc4O)[C@H](O)c3ccc(c(Cl)c3)Oc3cc2cc(c3O[C@@H]2O[C@H](CO)[C@@H](O)[C@H](O)[C@H]2O[C@H]2C[C@](C)(N)[C@H](O)[C@H](C)O2)Oc2ccc(cc2Cl)[C@H]1O [Vancomycin]
Conditions	fitness
S. aureus DSM 20231 [2], first compound 0.125 µg/mL, partner 0.1875 µg/mL	0.897
S. aureus DSM 20231 [2], first compound 0.125 µg/mL, partner 0.375 µg/mL	0.936
S. aureus DSM 20231 [2], first compound 0.125 µg/mL, partner 0.75 µg/mL	0.943
S. aureus DSM 20231 [2], first compound 0.25 µg/mL, partner 0.1875 µg/mL	0.553
S. aureus DSM 20231 [2], first compound 0.25 µg/mL, partner 0.375 µg/mL	0.596
S. aureus DSM 20231 [2], first compound 0.25 µg/mL, partner 0.75 µg/mL	0.583
S. aureus DSM 20231 [2], first compound 0.5 µg/mL, partner 0.1875 µg/mL	0.204
S. aureus DSM 20231 [2], first compound 0.5 µg/mL, partner 0.375 µg/mL	0.18
S. aureus DSM 20231 [2], first compound 0.5 µg/mL, partner 0.75 µg/mL	0.215
S. pneumoniae D39V [3], first compound 0.105 µg/mL, partner 0.125 µg/mL	0.689
S. pneumoniae D39V [3], first compound 0.105 µg/mL, partner 0.25 µg/mL	0.0692
S. pneumoniae D39V [3], first compound 0.105 µg/mL, partner 0.5 µg/mL	0.0491
S. pneumoniae D39V [3], first compound 0.2 µg/mL, partner 0.03125 µg/mL	0.77
S. pneumoniae D39V [3], first compound 0.2 µg/mL, partner 0.0625 µg/mL	0.751
S. pneumoniae D39V [3], first compound 0.21 µg/mL, partner 0.125 µg/mL	0.573
S. pneumoniae D39V [3], first compound 0.21 µg/mL, partner 0.25 µg/mL	0.082
S. pneumoniae D39V [3], first compound 0.21 µg/mL, partner 0.5 µg/mL	0.0299
S. pneumoniae D39V [3], first compound 0.4 µg/mL, partner 0.03125 µg/mL	0.63
S. pneumoniae D39V [3], first compound 0.4 µg/mL, partner 0.0625 µg/mL	0.604
S. pneumoniae D39V [3], first compound 0.42 µg/mL, partner 0.125 µg/mL	0.339
S. pneumoniae D39V [3], first compound 0.42 µg/mL, partner 0.25 µg/mL	0.0579
S. pneumoniae D39V [3], first compound 0.42 µg/mL, partner 0.5 µg/mL	0.0734
S. pneumoniae D39V [3], first compound 0.8 µg/mL, partner 0.03125 µg/mL	0.302
S. pneumoniae D39V [3], first compound 0.8 µg/mL, partner 0.0625 µg/mL	0.255
S. pneumoniae D39V [3], first compound 0.8 µg/mL, partner 0.125 µg/mL	0.188

S. aureus DSM 20231 [2], first compound 1 µg/mL, one replicate
Conditions	fitness
partner 0.1875 µg/mL	0.0273
partner 0.375 µg/mL	0.0396
partner 0.75 µg/mL	0.0452

Conditions	Bliss interaction score
B. subtilis 168 [4]	0.0387
S. aureus DSM 20231 [5]	0.0467
S. aureus Newman	-0.044
S. pneumoniae D39V [6]	-0.13
